{"source": "patent US7279336B2", "about": "“Methods and compositions for enhanced plant cell transformation” (priority 2002, dated 2007)", "key": {"Japonica rice explants": {"test_system": "Japonica rice explants", "conditions": "80 mg/L Cys; cited from earlier work"}, "maize immature embryos": {"test_system": "maize immature embryos", "assay": "Maize transformation experiments with control or histone H2A-1 T-DNA binary vector, with or without anti-oxidant", "type": "cell-based", "excerpt": "2. Kan Wang at the Plant Transformation Facility, Iowa State University tested for the present invention in two different Agrobacterium strains. One contains a T-DNA binary vector with a herbicide resistance gene in the T-DNA (this is the control construction)1. The other strain contains a similar T-DAN binary vector, but in addition to the herbicide resistance gene the T-DNA contains the Arabidopsis histone H2A-1 cDNA under the control of maize adh1 promoter and intron. These strains were used in four rounds of maize transformation experiments. […] Several thousand transformations (using the control vector without the histone gene) produced virtually no transformants. In these experiments, there were no transformants (using the control strain) without L-cysteine."}, "[1]": {"test_system": "immature zygotic embryos of the maize hybrid line Hi II", "assay": "Agrobacterium tumefaciens (EHA101, standard binary vector pTF102) transformation of maize Hi II immature zygotic embryos", "protocol": "A. tumefaciens strain EHA101 (Hood et al., 1986) containing the standard binary vector pTF102 (12.1 kb) was used in all experiments. […] This vector system, pTF 102 in EHA 101, was maintained on yeast extract peptone (YEP) medium (An et al., 1988) containing 100 mg/L spectinomycin (for pTF102) and 50 mg/L kanamycin (for EHA101). Bacteria cultures for weekly experiments were initiated from stock plates that were stored for up to 1 month at 4° C. before being refreshed from long-term, 80° C. glycerol stocks. In all experiments, bacteria cell densities were adjusted to an optical density (OD550) between 0.35 to 0.45 using a spectrophotometer immediately before embryo infection.\nF2 immature zygotic embryos (1.5-2.0 mm) of the maize (Zea mays) Hi II hybrid genotype (Armstrong et al., 1991) were aseptically dissected from greenhouse-grown ears harvested 10 to 13 d post pollination. Ears were stored up to 3 d at 4° C. before dissection.\nInfection, cocultivation, resting, and selection media were after Zhao et al. (1999) except that cocultivation medium was modified to contain Cys. All these media contained N6 salts and vitamins (Chu et al., 1975), 1.5 mg/L 2,4-dichlorophenoxyacetic acid, and 0.7 g L1 L-Pro in addition to the following ingredients: infection medium contained 68.4 g/L Suc and 36 g/L Glc (pH 5.2) and was supplemented with 100 μM AS (Sigma, St. Louis) before use; cocultivation medium contained 30 g/L Suc, 0.85 mg/L silver nitrate, 100 μM AS, and 3 g/L gelrite (pH 5.8); resting medium contained 30 g/L Suc, 0.5 g/L MES, 0.85 mg/L silver nitrate, 250 mg/L cefotaxime, and 8 g/L purified agar (pH 5.8). Selection medium was identical to resting medium with the addition of 1.5 or 3 mg/L bialaphos (Shinyo Sanyo, Tokyo). Infection medium was filter sterilized, whereas all other media were autoclaved. AS stock solutions (100 mM) were prepared by dissolving AS in 100% (v/v) dimethyl sulfoxide (DMSO) to make a 200 mM stock which was then diluted (1:1 [v/v]) with sterile water and stored in small aliquots at 20° C. Cys was added to cocultivation medium after autoclaving from freshly prepared, filter-sterilized stocks (100 mg/mL) and cocultivation medium was used within 2 to 5 d of preparation. Regeneration I medium contained Murashige and Skoog salts and vitamins (Murashige and Skoog, 1962), 60 g/L Suc, 100 mg/L myo-inositol, no hormones, and 3 g/L gelrite (pH 5.8) after Armstrong and Green (1985). Cefotaxime (250 mg/L) and bialaphos (3 mg/L) were added to this medium after autoclaving. Regeneration II medium differed from medium I in that it contained 30 g/L Suc and no bialaphos."}}, "data": [{"smiles": "N[C@@H](CS)C(=O)O", "note": "[L-cysteine]", "values": [{"measurement": "impact on embryogenesis", "setting": "Japonica rice explants", "value": "negative impact"}, {"measurement": "infected immature embryos giving transformants", "setting": "maize immature embryos; control vector without histone gene, with L-cysteine, no transformants without L-cysteine", "value": "2-3%"}, {"measurement": "transformation", "setting": "maize immature embryos; histone gene vector and L-cysteine", "value": "2-3%"}, {"measurement": "T-DNA delivery to embryogenic-competent scutellum cells of infected embryos", "setting": "[1]; 400 mg/L Cys in cocultivation medium", "value": "increased"}, {"measurement": "stable transformation rates", "setting": "[1]; Cys as low as 100 mg/L, compared with 400 mg/L, better embryo recovery", "value": "Comparable"}, {"measurement": "transient glucuronidase expression in targeted cells", "setting": "[1]; L-cysteine in cocultivation medium, 400 mg/L", "value": "improvement"}, {"measurement": "embryo response after cocultivation", "setting": "[1]; L-cysteine in cocultivation medium, 400 mg/L vs 0 mg/L", "value": "decrease"}]}]}
